Measurements as given in patent publication US10517889B2, “Modulators of SMAD7 expression” (Ionis Pharmaceuticals, Inc., priority 2017, dated 2019).

Experiments:
[1] = system: human SMAD7 mRNA; test: Dose-dependent inhibition of human SMAD7 mRNA expression in A431 cells, oligonucleotide added without transfection (Example 5, Study 1); type: cell-based; conditions: SMAD7 mRNA, in words
Procedure: The newly designed compounds disclosed herein are cEt-modified antisense oligonucleotides. […] The studies described below show a comparison of select cEt-modified gapmers and ION0736697/Mongersen.
A431 cells were plated in collagen I-coated 96-well plates in DMEM with […]. Immediately after plating, 0.08 μM, 0.25 μM, 0.74 μM, 2.22 μM, 6.67 μM, or 20.00 μM concentrations of antisense oligonucleotide were added. The plates were shaken briefly before incubating at 37° C. and 10% CO2. After a treatment period of approximately 48 hours, the cells were washed and lyzed and RNA on 384-well Pall plates with DNase I treatment. SMAD7 mRNA levels were measured by quantitative real-time PCR. Primer probe set RTS5062 was used to measure human SMAD7 mRNA levels. SMAD7 mRNA levels were adjusted according to total RNA content, as measured by RIBOGREEN®. Results are presented as percent inhibition of SMAD7 mRNA expression, relative to untreated control cells.
All Ionis oligonucleotides had greater potency than ION 736697/Mongersen.

[2] = system: murine Smad7 mRNA; test: Dose-dependent inhibition of murine Smad7 mRNA in bEND cells, electroporation (Example 5, Study 2); type: cell-based, mouse; conditions: in words
Procedure: Many of the Ionis designed oligonucleotides as well as ION 736697/Mongersen are complementary to mouse Smad7 mRNA. […] After a treatment period of approximately 16 hours, the cells were washed and lyzed and RNA on 384-well Pall plates with DNase I treatment. Smad7 mRNA levels were measured by quantitative real-time PCR. Primer probe set RTS1114 (forward sequence […], designated herein as SEQ ID NO: 8; reverse sequence […], designated herein as SEQ ID NO: 9; probe sequence […], designated herein as SEQ ID NO: 10) was used to measure murine Smad7 mRNA levels. Smad7 mRNA levels were adjusted according to total RNA content, as measured by RIBOGREEN®. Results are presented as percent inhibition of Smad7 mRNA expression, relative to untreated control cells.
Many of the Ionis oligonucleotides had greater potency than ION 736697/Mongersen.

[3] = system: mouse Smad7 mRNA; test: Pharmacology: mouse Smad7 mRNA expression in liver, kidney, duodenum, ileum and colon after subcutaneous administration in CD-1 mice (Example 6); type: in vivo; conditions: 50 mg/kg subcutaneously twice a week for 7 weeks, in words
Procedure: Groups of 8-9 week old male CD-1 mice were injected subcutaneously twice a week for 7 weeks with 50 mg/kg of Ionis oligonucleotides (100 mg/kg/week dose). Each group contained 4 mice. One group of male CD-1 mice was injected subcutaneously twice a week for 7 weeks with PBS. Plasma was collected for analysis on day 28.
The pharmacological activity of the Ionis oligonucleotides in mice was assessed by measuring mouse Smad7 mRNA expression in liver, kidney, duodenum, ileum, and colon at necropsy.
Tissue samples from all mice were analyzed for Smad7 mRNA expression using the primer probe set HTS7555 (forward sequence […], designated SEQ ID NO: 2737; reverse sequence […], designated SEQ ID NO: 2738; probe sequence […], designated SEQ ID NO: 2739), which was normalized to mRNA levels of the housekeeping gene, GAPDH. One-way ANOVA with Dunnet's comparison test was used for statistical analysis.

[4] = Tissue and organ histopathology after oral gavage in CD-1 mice (Example 7); type: in vivo; conditions: daily oral gavage 500 mg/kg for one month, in words
Procedure: Groups of 7-8 week old male CD-1 mice were given an oral gavage dose once daily for 4 weeks of 500 mg/kg of Ionis SMAD7 oligonucleotides. Each group contained 8 mice. One group of male CD-1 mice was administered saline by oral gavage daily.
Histopathology evaluations were performed on the mice treated with Ionis oligonucleotides to evaluate any tissue damage in the liver (with gallbladder), kidneys, heart, spleen, thymus, mesenteric lymph nodes, and different parts of the GI tract, including duodenum, ileum, and colon (proximal and distal). Tissues were collected and fixed in 10% neutral-buffered formalin, embedded in paraffin, sectioned, and stained with hematoxylin and eosin. All the tissues were histologically unremarkable in all mice.

[5] = system: mouse Smad7 mRNA; test: Murine Smad7 mRNA expression after subcutaneous administration in BALB/c mice (Example 10); type: in vivo; conditions: 50 mg/kg subcutaneous once a week for 4 weeks, 24 hours after last dose
Procedure: The objective of this study was to evaluate the efficacy of Ionis SMAD7 antisense oligonucleotides compared to ION 736697/Mongersen in BALB/c mice following 4 weeks of treatment. Both ION 830025 and ION 798781 are cross-reactive with mouse Smad7 mRNA.
Groups of BALB/c mice were subcutaneously administered 50 mg/kg of Ionis SMAD7 oligonucleotides once a week for 4 weeks. Each group contained 4 mice. One group of mice was administered PBS once a week for 4 weeks. […]

[6] = system: mouse Smad7 mRNA; test: Murine Smad7 mRNA expression after oral administration in BALB/c mice (Example 11); type: in vivo; conditions: orally 500 mg/kg/day for 3 weeks, in words
Procedure: The objective of this study was to evaluate the efficacy of Ionis SMAD7 antisense oligonucleotides in BALB/c mice following daily oral administration. The Ionis oligonucleotides are cross-reactive with mouse Smad7 mRNA.
Groups of BALB/c mice were orally administered 500 mg/kg/day for 3 weeks of human Smad7 oligonucleotides, ION 790615, ION 798781, or ION 830025, or mouse Smad7 oligonucleotide, ION 772797 (a 3-10-3 cEt gapmer with phosphorothioate backbone and sequence […]; designated herein as SEQ ID NO: 2743). One group of mice was orally administered PBS daily for 3 weeks. Each group contained 4 mice.
To evaluate the efficacy of the oligonucleotides, murine Smad7 mRNA expression in the liver, kidneys, duodenum, ileum, and colon was measured using primer probe set RTS1114.

[7] = Pharmacokinetics: oligonucleotide concentration in tissues after oral gavage in beagle dogs (Example 12); type: in vivo; conditions: for Tissue accumulation of oligonucleotide: 200 mg by oral gavage for 4 weeks, in words
Procedure: There were 4 animals per group.
Canine tissue exposure following oral administration of the Ionis SMAD7 oligonucleotides was measured in various organs and intestinal tissues.
Plasma concentrations of Ionis oligonucleotides were also measured on Day 28 at various time points.

[8] = Organ weights after oral gavage in beagle dogs (Example 12); conditions: 200 mg by oral gavage for 4 weeks, day 30, in words
Procedure: (§1) Groups of 24-25 week old male beagle dogs were administered 200 mg Ionis human SMAD7 oligonucleotide by oral gavage once a week for 4 weeks. There were 4 animals per group. A control group of dogs received oral administration of distilled water. Dogs were sacrificed on day 30 approximately 48 hours after the final dose and organs and plasma were harvested for further analysis.

[9] = Plasma chemistry markers after oral gavage in beagle dogs (Example 12); conditions: 200 mg by oral gavage for 4 weeks, day 30, in words
Procedure: The study was conducted to evaluate the tolerability and pharmacodynamics of select human SMAD7 antisense oligonucleotides in beagle dogs following 4 weeks of treatment. The dogs were administered oligonucleotides by oral gavage.
as §1
To evaluate the effect of Ionis SMAD7 oligonucleotides on liver and kidney function, approximately 1.5 mL of blood samples were collected and put into tubes without anticoagulant for serum separation. The tubes were kept at room temperature for a minimum of 90 min and then centrifuged (approximately 3,000 rpm for 10 min) to obtain serum. Plasma levels of transaminases, albumin, bilirubin, and BUN were measured using an automated clinical chemistry analyzer (Toshiba 200FR Neo chemistry analyzer, Toshiba Co., Japan).

[10] = Plasma chemistry markers after subcutaneous administration in beagle dogs (Example 8); conditions: 30 mg/kg subcutaneously, day 31, in words
[11] = system: human peripheral blood mononuclear cells (PBMCs); test: Human PBMC activation assay, cytokine levels (IL-10, IL-6, MCP-1, TNF-α) in supernatant after 24 hours (Example 9); conditions: human PBMCs, 24 hours, in words
Procedure: Ionis SMAD7 oligonucleotides were tested in an in vitro assay for potential immunostimulatory properties in an in vitro human peripheral blood mononuclear cell (PBMC) activation assay.
Blood samples were collected from healthy human volunteers in heparinized vials and mixed well. Human PBMCs were isolated by gradient centrifugation using Ficoll-Histopaque. The cells were washed, counted and resuspended in medium. The PBMCs were plated in a 24-well culture plate and various concentrations of oligonucleotides were added to the media. An oligonucleotide historically known to promote an inflammatory response was used as a positive control, whereas an oligonucleotide known not to be pro-inflammatory was used as a negative control. […] The supernatants were collected after 24 hours and analyzed for cytokine levels using MSD platform.

Substance | Potency/efficacy compared with ION 736697/Mongersen [1] | Potency compared with ION 736697/Mongersen [2] | Histopathology: oligonucleotide-related tissue alterations [4] | Mouse Smad7 mRNA expression (% inhibition), Colon [5] [% inhibition] | Mouse Smad7 mRNA expression (% inhibition), Duodenum [5] [% inhibition] | Mouse Smad7 mRNA expression (% inhibition), Ileum [5] [% inhibition] | Mouse Smad7 mRNA expression (% inhibition), Kidney [5] [% inhibition] | Mouse Smad7 mRNA expression (% inhibition), Liver [5] [% inhibition] | Tissue accumulation of oligonucleotide [7] | Oligonucleotide concentration in tissues, Duodenum ([7]; 200 mg oral gavage for 4 weeks) [µg/g] | Oligonucleotide concentration in tissues, Ileum ([7]; 200 mg oral gavage for 4 weeks) [µg/g] | Oligonucleotide concentration in tissues, Kidney ([7]; 200 mg oral gavage for 4 weeks) [µg/g] | Oligonucleotide concentration in tissues, Liver ([7]; 200 mg oral gavage for 4 weeks) [µg/g] | Oligonucleotide concentration in tissues, Proximal colon ([7]; 200 mg oral gavage for 4 weeks) [µg/g] | Tolerability (organ weights) [8] | Tolerability (plasma chemistry markers) [9] | Tolerability (plasma chemistry markers) [10] | further results
ION 830025 (antisense TTTGTAAATCGAAAGC; 3-10-3 cEt gapmer, phosphorothioate, further chemistry not given here) [sodium salt] | more efficacious than ION 736697/Mongersen | more potent than ION 736697/Mongersen | not associated with any antisense oligonucleotide-related tissue alterations | 32 | 26 | 14 | 5 | 46 | Distal colon accumulation was detected | 0.8 | 0.3 | 48.1 | 7.8 | 0.2 | very well tolerated | very well tolerated | well tolerated | Smad7 mRNA reduction in tissues [3]: significant Smad7 mRNA reduction in various tissues; Efficacy in reducing Smad7 mRNA expression [6]: efficacious in reducing Smad7 mRNA expression; Oligonucleotide concentration in tissues, Distal colon ([7]; 200 mg oral gavage for 4 weeks, distal colon): 0.1 µg/g; Cytokine and chemokine production (immunostimulatory profile) [11]: minimal cytokine and chemokine production which was similar or less than the negative control ASO
ION 798781 (CGTAAGATTCACAGCA; 3-10-3 cEt gapmer, further chemistry not given here) | more efficacious than ION 736697/Mongersen | more potent than ION 736697/Mongersen | not associated with any antisense oligonucleotide-related tissue alterations | 41 | 27 | 22 | 11 | 36 | higher accumulation in the liver and kidneys | 0.6 | 0.5 | 108.1 | 12.9 | 0.1 | very well tolerated | very well tolerated | well tolerated | 
